Assay results taken from patent US20230310629A1, “BISPECIFIC ANTIBODY-DRUG CONJUGATES TARGETING EGFR AND MUC1 AND USES THEREOF” (Merck Patent GmbH, priority 2020, published 2023).

What was measured:
NCI-H1975 cells = assay: cells; type: cell-based; settings: Homo sapiens
Procedure: (§1) NSCLC cells NCI-H292 (EGFR wild type (wt)), HCC827 (EGFR del E746-A750), and NCI-H1975 (EGFR L858R/T790M) were all purchased from ATCC. NCI-H292 and NCI-H1975 were cultured in RPMI1640 media with stable L-glutamine (Millipore® Sigma), 10% FBS (Millipore® Sigma) and 1 mM sodium pyruvate (Gibco®, Thermo Fisher Scientific®, or Millipore® Sigma). HCC827 cells were cultured in RPMI1640 media with stable 2 mM L-glutamine, 2.5 g/L D-(+)-glucose solution (Millipore® Sigma), 10 mM HEPES (Millipore® Sigma), 10% FBS, and 1 mM sodium pyruvate (Gibco®, Thermo Fisher Scientific®, or Millipore® Sigma).
(§2) For cytotoxicity testing, cell monolayers were washed once with Gibco® D-PBS (Thermo Fisher Scientific®) and detached from the cell culture flask using Accutase® (Millipore® Sigma). Viable cells were counted with the automated cell counter LUNA-FL™ (Logos Biosystems) using 0.4% Gibco® trypan blue solution (Thermo Fisher Scientific®). A total of 625 cells (NCI-H292), 1250 cells (NCI-H1975) or 3000 cells (HCC827) were plated in 90 μl cell culture medium per well of a 96-well black/clear flat bottom TC-treated imaging microplate (Corning®) and cultured overnight. A ten-fold starting concentration of ADCs or compounds and a respective serial dilution (1:4) were prepared in cell culture medium briefly before use. Wells were supplied with 10 μl ADC or compound solution. Treatment was performed in technical triplicates. […] Untreated control cells for ADCs or EGFR tyrosine kinase inhibitors (TKIs) received a corresponding amount of dilution media or dimethylsulfoxide (DMSO; Millipore Sigma), respectively. For subsequent cell viability measurement, 100 μl Cell Titer-Glo® reagent (Promega™ Corp, Madison, WI, USA) was pipetted in each well, and plates were further processed according the manufacturer's instructions.

NCI-H292 cells = assay: cells; type: cell-based; settings: Homo sapiens
Procedure: as §1, §2

With C=CC(=O)Nc1cc(Nc2nccc(-c3cn(C)c4ccccc34)n2)c(OC)cc1N(C)CCN(C)C [Molecule 15, osimertinib] the IC50 (NCI-H1975 cells; NCI-H1975, […], read-out: Geomean IC50) was […], the Emax (NCI-H1975 cells; NCI-H1975, read-out: geomean span (% efficacy)) was […] and the IC50 (NCI-H292 cells; NCI-H292, […], read-out: Geomean IC50) was 570 nM. It also gave an Emax (NCI-H292 cells; NCI-H292, read-out: geomean span (% efficacy)) of 100%.
